The text below walks through data of USRE39352E1, “Creatine amidinohydrolase, production thereof and use thereof” (Toyo Boseki Kabushiki Kaisha, priority 1996, dated 2006).

Values joined by “and” are separate entries in the source; they are usually repeats but may differ in a detail not shown here. Equal entries are not always repeated.

For test [1], the system named is Alcaligenes faecalis TE3581 (FERM P-14237) creatine amidinohydrolase, wild, SEQ ID NO: 1 (gene SEQ ID NO: 2). Put plainly: Km value for creatine, coupling assay using sarcosine oxidase and peroxidase (wild enzyme). The class given is biochemical. The following applies: coupling assay with sarcosine oxidase and peroxidase, pH 7.6, 37° C. The text has this: While the gene encoding a wild creatine amidinohydrolase which is to be mutated is not particularly limited, in one embodiment of the present invention, it is the creatine amidinohydrolase gene depicted in the Sequence Listing•SEQ ID:No.2, which is derived from Alcaligenes•faecalis TE3581 (FERM P-14237).
In another embodiment of the present invention, a novel creatine amidinohydrolase having a smaller Km value for creatine than a wild creatine amidinohydrolase is produced by mutating the gene encoding the amino acid sequence depicted in the Sequence Listing•SEQ ID No:1. […]
In the Examples, the activity of creatine amidinohydrolase was determined as follows. […]
The above-mentioned reaction mixture (3 ml) is taken with a cuvette (d=1 cm) and preliminarily heated to 37° C. for about 3 minutes. […] Using water as a control, changes in absorbance at 500 nm are recorded for 5 minutes using a spectrophotometer controlled to 37° C. Based on the linear portion of 2-5 minutes thereof, changes in absorbance per minute are determined (ΔOD) test.
The blank test is performed in the same manner as above except that a solution (0.1 ml, 50 mM potassium phosphate buffer, pH 7.5) for diluting the enzyme is used instead of the enzyme solution and changes in absorbance per minute are determined (ΔOD blank).
The enzyme amount is calculated by inserting each measure into the following formula. […]

Test [2] concerns Alcaligenes faecalis TE3581 creatine amidinohydrolase mutant pCRH273M1 (FERM BP-5374), purified from Escherichia coli JM109 (pCRH273M1). The test can be described thus: Km value for creatine, coupling assay using sarcosine oxidase and peroxidase (mutant pCRH273M1). The following applies: coupling assay with sarcosine oxidase and peroxidase, pH 7.6, 37° C. The class given is biochemical.

Test [3] has as its system Alcaligenes faecalis TE3581 creatine amidinohydrolase mutant pCRH273M2 (FERM BP-5375), purified from Escherichia coli JM109 (pCRH273M2). Put plainly: Km value for creatine, coupling assay using sarcosine oxidase and peroxidase (mutant pCRH273M2). The following applies: coupling assay with sarcosine oxidase and peroxidase, pH 7.6, 37° C. It counts as biochemical.
Test [4] deals with Alcaligenes faecalis TE3581 creatine amidinohydrolase mutant pCRH273M3 (FERM BP-5376), purified from Escherichia coli JM109 (pCRH273M3). Put plainly: Km value for creatine, coupling assay using sarcosine oxidase and peroxidase (mutant pCRH273M3). The following applies: coupling assay with sarcosine oxidase and peroxidase, pH 7.6, 37° C. The class given is biochemical.
For test [5], the system named is Pseudomonas putida creatine amidinohydrolase. The following applies: residual creatine determined with α-naphthol and diacetyl; Archives Biochemistry and Biophysics 177, 508-515 (1976); read-out: apparent Km value for creatine; cited from earlier work.
For test [6], the system named is creatine amidinohydrolase derived from bacteria belonging to the genus Corynebacterium. The following applies: Japanese Patent Examined Publication No. 76915/1991; cited from earlier work.
The test system of test [7] is creatine amidinohydrolase derived from bacteria belonging to the genus Micrococcus. The following applies: Japanese Patent Examined Publication No. 76915/1991; cited from earlier work.
Test [8] has as its system creatine amidinohydrolase derived from bacteria belonging to the genus Actinobacillus. The following applies: Japanese Patent Examined Publication No. 76915/1991; cited from earlier work.
The test system of test [9] is creatine amidinohydrolase derived from bacteria belonging to the genus Bacillus. The following applies: Japanese Patent Examined Publication No. 76915/1991; cited from earlier work.
In test [10] the test system is creatine amidinohydrolase produced by bacteria belonging to the genus Alcaligenes (Japanese Patent Unexamined Publication No. 63363/1994). The following applies: cited from earlier work.

As a reminder, the Km is the concentration of substrate that gives half-maximal velocity.

Take `CN(CC(=O)O)C(=N)N` [creatine]: the Km in test [1] is 15.2 mM; in [2], ~6.5 mM and 6.5 mM; in [3], ~4.5 mM and 4.5 mM; in test [4] it was ~9 mM and 9 mM; in [5], 1.33 mM; in [6], around 20 mM. Also, the Km in test [7] was around 20 mM; in test [8], around 20 mM; in test [9], around 20 mM; in test [10], around 15.2 mM.
